Earlier results, collected in US11491138B2, “Injectable psychoactive alkaloid composition and preparation thereof” (PSILO SCIENTIFIC LTD, priority 2020, dated 2022).

Columns and labels:
[1] = stated as known property
[2] = reason for composition pH of 4.5-5.5

For `CN(C)CCc1c[nH]c2cccc(O)c12` [psilocin], the isoelectric point [1] is given as 8.47±0.25 pH and the “pH at which instability occurs” value [2] is given as “over 5.5 pH”.
